Reference: patent US11866450B2, “Modulators of Cystic Fibrosis Transmembrane Conductance regulator, pharmaceutical compositions, methods of treatment, and process for making the modulators” (priority 2018, dated 2024)

Target: CFTR-mediated chloride transport (Homo sapiens, UniProt P13569)
Format: cell-based
Details: enteroid cells incubated with test compound 18-24 hours, acute 10 μM forskolin and 300 nM Compound III; for Max. Activity: % of chloride transport with 3 μM Compound A, 3 μM Compound II and 300 nM acute Compound III triple combination control
Experimental: Base medium (ADF+++) consisted of Advanced DMEM/Ham's F12, 2 mM Glutamax, 10 mM HEPES, […] penicillin/streptomycin.
Intestinal enteroid maintenance medium (IEMM) consisted of ADF+++, 1× B27 supplement, 1× N2 supplement, 1.25 mM N-acetyl cysteine, 10 mM Nicotinamide, 50 ng/mL hEGF, 10 nM Gastrin, 1 μg/mL hR-spondin-1, 100 ng/mL hNoggin, TGF-b type 1 inhibitor A-83-01, 100 μg/mL Primocin, 10 μM P38 MAPK inhibitor SB202190.
Bath 1 Buffer consisted of 1 mM MgCl2, 160 mM NaCl, 4.5 mM KCl, 10 mM HEPES, 10 mM Glucose, 2 mM CaCl2).
Chloride Free Buffer consisted of 1 mM Magnesium Gluconate, 2 mM Calcium Gluconate, 4.5 mM Potassium Gluconate, 160 mM Sodium Gluconate, 10 mM HEPES, 10 mM Glucose.
Bath1 Dye Solution consisted of Bath 1 Buffer, 0.04% Pluronic F127, 20 μM Methyl Oxonol, 30 μM CaCCinh-A01, 30 μM Chicago Sky Blue.
Chloride Free Dye Solution consisted of Chloride Free Buffer, 0.04% Pluronic F127, 20 μM Methyl Oxonol, 30 μM CaCCinh-A01, 30 μM Chicago Sky Blue.
Chloride Free Dye Stimulation Solution consisted of Chloride Free Dye Solution, 10 μM forskolin, 100 μM IBMX, and 300 nM Compound III.
Human intestinal epithelial enteroid cells were obtained from the Hubrecht Institute for Developmental Biology and Stem Cell Research, Utrecht, The Netherlands and expanded in T-Flasks as previously described (Dekkers J F, Wiegerinck C L, de Jonge H R, Bronsveld I, Janssens H M, de Winter-de Groot K M, Brandsma A M, de Jong N W M, Bijvelds M J C, Scholte B J, Nieuwenhuis E E S, van den Brink S, Clevers H, van der Ent C K, Middendorp S and M Beekman J M. A functional CFTR assay using primary cystic fibrosis intestinal organoids. Nat Med. 2013 July; 19(7):939-45).
Cells were recovered in cell recovery solution, collected by centrifugation at 650 rpm for 5 min at 4° C., resuspended in TryPLE and incubated for 5 min at 37° C. Cells were then collected by centrifugation at 650 rpm for 5 min at 4° C. and resuspended in IEMM containing 10 μM ROCK inhibitor (RI) (trans-4-[(1R)-1-aminoethyl]-N-4-pyridinylcyclohexanecarboxamide). The cell suspension was passed through a 40 μm cell strainer and resuspended at 1×10^6 cells/mL in IEMM containing 10 μM RI. Cells were seeded at 5000 cells/well into multi-well plates and incubated for overnight at 37° C., 95% humidity and 5% CO2 prior to assay.
Enteroid cells were incubated with test compound in IEMM for 18-24 hours at 37° C., 95% humidity and 5% CO2. Following compound incubations, a membrane potential dye assay was employed using a FLIPR Tetra to directly measure the potency and efficacy of the test compound on CFTR-mediated chloride transport following acute addition of 10 μM forskolin and 300 nM Compound III. Briefly, cells were washed 5 times in Bath 1 Buffer. Bath 1 Dye Solution was added and the cells were incubated for 25 min at room temperature. Following dye incubation, cells were washed 3 times in Chloride Free Dye Solution. Chloride transport was initiated by addition of Chloride Free Dye Stimulation Solution and the fluorescence signal was read for 15 min. The CFTR-mediated chloride transport for each condition was determined from the AUC of the fluorescence response to acute forskolin and 300 nM Compound III stimulation. Chloride transport was then expressed as a percentage of the chloride transport following treatment with 3 μM Compound A, 3 μM Compound II and 300 nM acute Compound III triple combination control (% Activity).

CFTR-mediated chloride transport, sequence (P13569 whole entry, looked up): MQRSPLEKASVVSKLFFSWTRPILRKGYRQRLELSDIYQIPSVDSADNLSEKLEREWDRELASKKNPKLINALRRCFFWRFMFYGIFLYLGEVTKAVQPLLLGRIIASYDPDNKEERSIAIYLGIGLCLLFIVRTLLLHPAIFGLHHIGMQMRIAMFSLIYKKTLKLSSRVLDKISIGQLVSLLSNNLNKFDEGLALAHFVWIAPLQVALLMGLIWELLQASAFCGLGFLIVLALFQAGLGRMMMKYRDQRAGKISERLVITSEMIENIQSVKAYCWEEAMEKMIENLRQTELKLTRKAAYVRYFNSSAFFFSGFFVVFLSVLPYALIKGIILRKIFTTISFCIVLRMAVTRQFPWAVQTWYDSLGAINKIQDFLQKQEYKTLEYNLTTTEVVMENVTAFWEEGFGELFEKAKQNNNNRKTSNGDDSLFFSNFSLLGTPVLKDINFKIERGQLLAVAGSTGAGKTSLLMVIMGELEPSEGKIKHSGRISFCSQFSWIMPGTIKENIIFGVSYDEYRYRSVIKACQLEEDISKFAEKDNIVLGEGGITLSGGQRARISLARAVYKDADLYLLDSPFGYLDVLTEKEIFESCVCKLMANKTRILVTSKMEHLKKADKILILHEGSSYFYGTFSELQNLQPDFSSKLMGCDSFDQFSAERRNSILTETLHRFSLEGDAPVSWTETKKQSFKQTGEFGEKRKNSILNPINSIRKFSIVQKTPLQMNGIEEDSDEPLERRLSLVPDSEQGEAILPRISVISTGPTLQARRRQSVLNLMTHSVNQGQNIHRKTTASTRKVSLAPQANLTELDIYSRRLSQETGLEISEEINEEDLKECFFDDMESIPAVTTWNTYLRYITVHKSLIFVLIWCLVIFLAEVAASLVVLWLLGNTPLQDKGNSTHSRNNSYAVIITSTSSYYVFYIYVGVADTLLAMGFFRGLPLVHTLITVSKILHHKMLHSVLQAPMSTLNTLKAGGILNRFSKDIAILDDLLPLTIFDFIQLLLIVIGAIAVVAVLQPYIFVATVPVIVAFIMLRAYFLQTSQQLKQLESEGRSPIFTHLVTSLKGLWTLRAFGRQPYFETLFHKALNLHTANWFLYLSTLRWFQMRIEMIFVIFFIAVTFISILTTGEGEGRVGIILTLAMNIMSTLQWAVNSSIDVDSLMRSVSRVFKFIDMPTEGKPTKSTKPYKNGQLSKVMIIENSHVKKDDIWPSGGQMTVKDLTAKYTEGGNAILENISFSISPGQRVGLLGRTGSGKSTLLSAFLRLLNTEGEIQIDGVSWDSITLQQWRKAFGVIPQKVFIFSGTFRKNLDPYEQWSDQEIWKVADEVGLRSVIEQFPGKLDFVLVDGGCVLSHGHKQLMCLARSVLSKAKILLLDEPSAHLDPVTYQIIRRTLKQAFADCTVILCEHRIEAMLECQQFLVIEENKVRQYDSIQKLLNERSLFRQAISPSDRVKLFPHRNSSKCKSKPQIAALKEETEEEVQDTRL

SMILES	EC50 [nM]	Max. Activity
CC1(C)C[C@@H]2CCCn3ccc(n3)S(=O)(=O)NC(=O)c3ccc(-n4ccc(OCCC5(C(F)(F)F)CC5)n4)nc3N1C2 [Compound 85, (18S)-20,20-dimethyl-4-(3-{2-[1-(trifluoromethyl)cyclopropyl]ethoxy}-1H-pyrazol-1-yl)-10λ^6-thia-1,3,9,14,22-pentaazatetracyclo[16.2.1.111,14.02,7]docosa-2,4,6,11(22),12-pentaene-8,10,10-trione]	< 1000	+++ (+++ is >60%)
CC1CCC2CN(c3nc(-n4ccc(OCCC5(C(F)(F)F)CC5)n4)ccc3C(=O)NS(=O)(=O)c3cccc(n3)N1)C(C)(C)C2 (stereo not shown) [Compound 36, 12,12,17-trimethyl-8-(3-{2-[1-(trifluoromethyl)cyclopropyl]ethoxy}-1H-pyrazol-1-yl)-2λ^6-thia-3,9,11,18,23-pentaazatetracyclo[17.3.1.111,14.05,10]tetracosa-1(23),5(10),6,8,19,21-hexaene-2,2,4-trione]	< 1000	+++ (+++ is >60%)
CC1(C)C[C@@H]2CN1c1nc(-n3ccc(OCCC4(C(F)(F)F)CC4)n3)ccc1C(=O)NS(=O)(=O)c1cccc(n1)NCCO2 (single isomer, unassigned) [Compound 75, 12,12-dimethyl-8-(3-{2-[1-(trifluoromethyl)cyclopropyl]ethoxy}-1H-pyrazol-1-yl)-15-oxa-2λ^6-thia-3,9,11,18,23-pentaazatetracyclo[17.3.1.111,14.05,10]tetracosa-1(22),5(10),6,8,19(23),20-hexaene-2,2,4-trione]	< 1000	+++ (+++ is >60%)
CC(C)(C)CCC1C(=O)N(c2ccc3c(n2)N2C[C@@H](CCCNc4cccc(n4)S(=O)(=O)NC3=O)CC2(C)C)CC1(C)C (stereo partly drawn) [Compound 98, (14S)-8-[3-(3,3-Dimethylbutyl)-4,4-dimethyl-2-oxopyrrolidin-1-yl]-12,12-dimethyl-2λ^6-thia-3,9,11,18,23-pentaazatetracyclo[17.3.1.111,14.05,10]tetracosa-1(22),5,7,9,19(23),20-hexaene-2,2,4-trione]	< 1000	++ (++ is 30-60%)
CC1(C)C[C@H]2CCn3ccc(n3)S(=O)(=O)NC(=O)c3ccc(-n4ccc(OCCCC5(C(F)(F)F)CC5)n4)nc3N1C2 (single isomer, unassigned) [Compound 278, 19,19-dimethyl-4-(3-{3-[1-(trifluoromethyl)cyclopropyl]propoxy}-1H-pyrazol-1-yl)-10λ^6-thia-1,3,9,14,21-pentaazatetracyclo[15.2.1.111,14.02,7]henicosa-2,4,6,11(21),12-pentaene-8,10,10-trione]	> 3000	+ (+ is <30%)
CC1(C)C[C@@H]2CCCNc3ccc(O)c(n3)S(=O)(=O)NC(=O)c3ccc(-n4ccc(OCCCC5(C(F)(F)F)CC5)n4)nc3N1C2 [Compound 261, (14S)-22-hydroxy-12,12-dimethyl-8-(3-{3-[1-(trifluoromethyl)cyclopropyl]propoxy}-1H-pyrazol-1-yl)-2λ^6-thia-3,9,11,18,23-pentaazatetracyclo[17.3.1.111,14.05,10]tetracosa-1(22),5,7,9,19(23),20-hexaene-2,2,4-trione]	< 1000	++ (++ is 30-60%)
CC1(C)CC[C@H]2CNc3cccc(n3)S(=O)(=O)NC(=O)c3ccc(-n4ccc(OCCC5(C(F)(F)F)CC5)n4)nc3N21 (single isomer, unassigned) [Compound 51, 7,7-dimethyl-11-(3-{2-[1-(trifluoromethyl)cyclopropyl]ethoxy}-1H-pyrazol-1-yl)-17λ^6-thia-2,8,10,16,22-pentaazatetracyclo[16.3.1.04,8.09,14]docosa-1(22),9,11,13,18,20-hexaene-15,17,17-trione]	> 3000	+ (+ is <30%)
CC1(C)C[C@@H]2CCCNc3cccc(n3)S(=O)(=O)NC(=O)c3ccc(N4CC[C@H](OCCC5C6(CC6)C56CC6)C4=O)nc3N1C2 (single isomer, unassigned) [Compound 179]	< 1000	++ (++ is 30-60%)
CC1(C)C[C@H]2CCCn3ccc(n3)S(=O)(=O)NC(=O)c3ccc(N4CC[C@H](OCCC5(C(F)(F)F)CC5)C4=O)nc3N1C2 (single isomer, unassigned) [Compound 191, 20,20-Dimethyl-4-(2-oxo-3-{2-[1-(trifluoromethyl)cyclopropyl]ethoxy}pyrrolidin-1-yl)-10λ^6-thia-1,3,9,14,22-pentaazatetracyclo[16.2.1.111,14.02,7]docosa-2,4,6,11(22),12-pentaene-8,10,10-trione]	< 1000	++ (++ is 30-60%)
CN1CCC[C@H]2CN(c3nc(-n4ccc(OCCC(C5CC5)C5CC5)n4)ccc3C(=O)NS(=O)(=O)c3cccc1n3)C(C)(C)C2 (single isomer, unassigned) [Compound 203, 8-[3-(3,3-Dicyclopropylpropoxy)-1H-pyrazol-1-yl]-12,12,18-trimethyl-2λ^6-thia-3,9,11,18,23-pentaazatetracyclo[17.3.1.111,14.05,10]tetracosa-1(22),5,7,9,19(23),20-hexaene-2,2,4-trione]	< 1000	+++ (+++ is >60%)
CC1(C)C[C@H]2CCCNc3cccc(n3)S(=N)(=O)NC(=O)c3ccc(-n4ccc(OCCC5(C(F)(F)F)CC5)n4)nc3N1C2 (single isomer, unassigned) [Compound 267, 2-imino-12,12-dimethyl-8-(3-{2-[1-(trifluoromethyl)cyclopropyl]ethoxy}-1H-pyrazol-1-yl)-2λ^6-thia-3,9,11,18,23-pentaazatetracyclo[17.3.1.111,14.05,10]tetracosa-1(23),5,7,9,19,21-hexaene-2,4-dione]	< 1000	+++ (+++ is >60%)
CC1(C)C[C@H]2CCCCCNc3cccc(n3)S(=O)(=O)NC(=O)c3ccc(-n4ccc(OCCC5(C(F)(F)F)CC5)n4)nc3N1C2 (single isomer, unassigned) [Compound 64, 12,12-dimethyl-8-(3-{2-[1-(trifluoromethyl)cyclopropyl]ethoxy}-1H-pyrazol-1-yl)-2λ^6-thia-3,9,11,20,25-pentaazatetracyclo[19.3.1.111,14.05,10]hexacosa-1(24),5,7,9,21(25),22-hexaene-2,2,4-trione]	< 1000	++ (++ is 30-60%)
CC1(C)C[C@H]2CCNc3cccc(n3)S(=O)(=O)NC(=O)c3ccc(-n4ccc(OCCC5(C(F)(F)F)CC5)n4)nc3N1C2 (single isomer, unassigned) [Compound 27, 7,7-dimethyl-11-(3-{2-[1-(trifluoromethyl)cyclopropyl]ethoxy}-1H-pyrazol-1-yl)-17λ^6-thia-2,8,10,16,22-pentaazatetracyclo[16.3.1.15,8.09,14]tricosa-1(21),9,11,13,18(22),19-hexaene-15,17,17-trione]	< 1000	+++ (+++ is >60%)
CC1(C)C[C@H]2CCCn3ccc(n3)S(=O)(=O)NC(=O)c3ccc(-n4ccc(OCCCC5(C(F)(F)F)CC5)n4)nc3N1C2 (single isomer, unassigned) [Compound 166, 20,20-dimethyl-4-(3-{3-[1-(trifluoromethyl)cyclopropyl]propoxy}-1H-pyrazol-1-yl)-10λ^6-thia-1,3,9,14,22-pentaazatetracyclo[16.2.1.111,14.02,7]docosa-2(7),3,5,11(22),12-pentaene-8,10,10-trione]	< 1000	+++ (+++ is >60%)
